Among the data in US10227357B2, “Compounds and methods for kinase modulation, and indications therefor” (Plexxikon Inc., priority 2012, dated 2019) are IC50 values, retold here.

T1 sequence (P10721 with tags, fused parts or gaps DEL694-753/D816V): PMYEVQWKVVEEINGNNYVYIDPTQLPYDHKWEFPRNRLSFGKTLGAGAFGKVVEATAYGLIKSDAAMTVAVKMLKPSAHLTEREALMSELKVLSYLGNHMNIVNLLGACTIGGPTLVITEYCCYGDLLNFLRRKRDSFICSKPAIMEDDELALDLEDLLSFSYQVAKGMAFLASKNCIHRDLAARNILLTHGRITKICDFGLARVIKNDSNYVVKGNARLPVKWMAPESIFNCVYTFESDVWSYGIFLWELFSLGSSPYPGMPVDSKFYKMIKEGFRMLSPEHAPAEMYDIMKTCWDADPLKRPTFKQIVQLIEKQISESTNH

This assay concerns the target T1, c-kit mutant D816V (Homo sapiens, UniProt P10721, D816V/DEL694-753).
T1 construct: residues 551-934, kinase insertion domain residues 694-753 deleted; 6x-histidine (N); made in house; host or cells: E. coli Arctic Express (DE3) RIL (Stratagene)
The experiment in a line: c-Kit mutant D816V biochemical assay, AlphaScreen. Conditions: c-kit D816V biochemical inhibitory activity; read-out: Biochemical activity (IC50 μM) Kit D816V. As to the method:
Compounds to be tested were dissolved in DMSO to a concentration of 20 mM. These were diluted 30 μl into 120 μl of DMSO (4 mM) and 1 μl was added to an assay plate. These were then serially diluted 1:3 (50 μl to 100 μl DMSO) for a total of 8 points. Plates were prepared such that each kinase reaction is 20 μl in 1× kinase buffer (25 mM HEPES, pH 7.2, 8 mM MgCl2, 2 mM MnCl2, 50 mM NaCl, 0.01% Brij, 1 mM DTT, 0.01% BSA), 5% DMSO and 10 μM ATP. […] After incubation of the kinase reaction for 30 minutes at room temperature, 5 μl of donor beads (Streptavidin coated beads (Perkin Elmer Life Science) final concentration 7.5 μg/ml) in stop buffer (25 mM Hepes pH 7.5, 100 mM EDTA, 0.01% BSA) was added, the sample was mixed and incubated for 20 minutes at room temperature before adding 5 μl of acceptor beads (PY20 coated beads (Perkin Elmer Life Science) final concentration 7.5 μg/ml) in stop buffer. The samples were incubated for 60 minutes at room temperature and the signal per well was read on EnVision reader. […] The signal vs. compound concentration was used to determine the IC50.
Cells were grown in Terrific Broth (TB) media to an OD600 of 0.6 at 37° C. at which temperature was reduced to 10° C., protein was induced with 1.0 mM IPTG for 18 hours and harvested by centrifugation at 8000×g for 20 minutes. Cells were re-suspended in 0.1M KPO4 pH 8.0, 250 mM NaCl, 10% Glycerol, 0.75% NP-40, 25 mM Imidazole, 5 mM BME with 0.2 mg/ml Lysosyme, 2.0 mM PMSF, 25 μg/ml DNAse I, incubated in ice for 30 minutes and lysed with a cell disruptor (MicroFluidics). The lysate was clarified by centrifugation at 20,000×g for 2 hours. The protein was captured with Talon resin (Clontech). Contaminating proteins were washed off with 25 mM Tris-HCl pH 8.3, 250 mM NaCl, 15% Glycerol, 1% Triton X-100, and protein eluted using 100 mM EDTA. The protein was further purified using Gel Filtration column 26/600 Superdex 200 (GE) in 50 mM Tris-HCl, pH 8.0, 250 mM NaCl, 15% Glycerol, 5 mM BME. The protein was aliquoted and flash-frozen in liquid Nitrogen.
On to `CCCS(=O)(=O)Nc1ccc(-c2ncnc3cc(OC)c(OC)cc23)cc1F` [P-0275, N-[4-(6,7-dimethoxyquinazolin-4-yl)-2-fluoro-phenyl]propane-1-sulfonamide], for which the IC50 was 1 to 10 µM.

`Cc1cc2c(-c3ccc(NS(=O)(=O)c4ccc(C(C)C)cc4)cc3)ncnc2[nH]1` [P-0306, 4-isopropyl-N-[4-(6-methyl-7H-pyrrolo[2,3-d]pyrimidin-4-yl)phenyl]benzenesulfonamide]: the IC50 was in the range of 1 to 10 µM. In the case of `Cc1cc2c(-c3ccc(NS(=O)(=O)c4ccc(C(F)(F)F)cn4)cc3)ncnc2[nH]1` [P-0312, N-[4-(6-methyl-7H-pyrrolo[2,3-d]pyrimidin-4-yl)phenyl]-5-(trifluoromethyl)pyridine-2-sulfonamide] it was 1 to 10 µM; in that of `Cc1cc2c(-c3ccc(NS(=O)(=O)c4ccc(Cl)c(Cl)c4)cc3)ncnc2[nH]1` [P-0316, 3,4-dichloro-N-[4-(6-methyl-7H-pyrrolo[2,3-d]pyrimidin-4-yl)phenyl]benzenesulfonamide], 1 to 10 µM; in that of `O=S(=O)(Nc1ccc(-c2ncnc3[nH]c(-c4ccc(F)cc4F)cc23)c(F)c1)c1ccc(F)cc1` [P-0332, N-[4-[6-(2,4-difluorophenyl)-7H-pyrrolo[2,3-d]pyrimidin-4-yl]-3-fluoro-phenyl]-4-fluoro-benzenesulfonamide], 0.0001 to 1 µM. In the case of `Nc1ccc(-c2ncnc3[nH]c(-c4ccc(F)cc4F)cc23)c(F)c1` [P-0341, 4-[6-(2,4-difluorophenyl)-7H-pyrrolo[2,3-d]pyrimidin-4-yl]-3-fluoro-aniline] it was 0.0001 to 1 µM; in that of `CS(=O)(=O)Nc1ccccc1-c1ncnc2[nH]c(-c3ccc(F)cc3)cc12` [P-0375, N-[2-[6-(4-fluorophenyl)-7H-pyrrolo[2,3-d]pyrimidin-4-yl]phenyl]methanesulfonamide], 10 to 200 µM. In the case of `NS(=O)(=O)c1ccc(-c2ncnc3[nH]c(-c4ccc(F)cc4)cc23)c(F)c1` [P-0376, 3-fluoro-4-[6-(4-fluorophenyl)-7H-pyrrolo[2,3-d]pyrimidin-4-yl]benzenesulfonamide] it was 0.0001 to 1 µM; in that of `Cc1cc2c(-c3ccc(S(=O)(=O)NC4CC4)cc3)ncnc2[nH]1` [P-0380, N-cyclopropyl-4-(6-methyl-7H-pyrrolo[2,3-d]pyrimidin-4-yl)benzenesulfonamide], 10 to 200 µM; in that of `O=S(=O)(Nc1cccc(-c2ncnc3[nH]c(-c4cnc(C5CC5)nc4)cc23)c1)C1CC1` [P-0383, N-[3-[6-(2-cyclopropylpyrimidin-5-yl)-7H-pyrrolo[2,3-d]pyrimidin-4-yl]phenyl]cyclopropanesulfonamide], 10 to 200 µM.

Regarding `c1nc(-c2cnc(C3CC3)nc2)c2cc(-c3cnc(C4CC4)nc3)[nH]c2n1` [P-0384, 4,6-bis(2-cyclopropylpyrimidin-5-yl)-7H-pyrrolo[2,3-d]pyrimidine], the IC50 was in the range of 10 to 200 µM. As for `NS(=O)(=O)c1ccc(-c2ncnc3[nH]c(-c4cnc(C5CC5)nc4)cc23)cc1` [P-0385, 4-[6-(2-cyclopropylpyrimidin-5-yl)-7H-pyrrolo[2,3-d]pyrimidin-4-yl]benzenesulfonamide], the figure is 1 to 10 µM; as for `O=S(=O)(Nc1ccc(-c2ncnc3[nH]c(-c4ccc(F)cc4)cc23)c(F)c1)N1CCCC1` [P-0400, N-[3-fluoro-4-[6-(4-fluorophenyl)-7H-pyrrolo[2,3-d]pyrimidin-4-yl]phenyl]pyrrolidine-1-sulfonamide], 1 to 10 µM. As for `O=S(=O)(Nc1ccc(-c2ncnc3[nH]c(-c4ccc(F)cc4)cc23)cc1F)N1CCCC1` [P-0405, N-[2-fluoro-4-[6-(4-fluorophenyl)-7H-pyrrolo[2,3-d]pyrimidin-4-yl]phenyl]pyrrolidine-1-sulfonamide], the figure is 10 to 200 µM; as for `O=S(=O)(Nc1ccc(-c2ncnc3[nH]c(-c4ccc(F)cc4)cc23)cc1)N1CCCC1` [P-0411, N-[4-[6-(4-fluorophenyl)-7H-pyrrolo[2,3-d]pyrimidin-4-yl]phenyl]pyrrolidine-1-sulfonamide], 1 to 10 µM.

On to `CCNc1ccc(-c2ncnc3[nH]c(-c4ccc(F)cc4)cc23)cn1` [P-0417, N-ethyl-5-[6-(4-fluorophenyl)-7H-pyrrolo[2,3-d]pyrimidin-4-yl]pyridin-2-amine], for which the IC50 was in the range of 1 to 10 µM. In the case of `CCNS(=O)(=O)c1ccc(-c2ncnc3[nH]c(-c4ccc(F)cc4)cc23)cc1` [P-0422, N-ethyl-4-[6-(4-fluorophenyl)-7H-pyrrolo[2,3-d]pyrimidin-4-yl]benzenesulfonamide] it was 10 to 200 µM; in that of `O=S(=O)(Nc1ccc(F)cc1)c1ccc(-c2ncnc3[nH]c(-c4ccc(F)cc4)cc23)cc1` [P-0428, N-(4-fluorophenyl)-4-[6-(4-fluorophenyl)-7H-pyrrolo[2,3-d]pyrimidin-4-yl]benzenesulfonamide], 0.0001 to 1 µM. As for `Cc1ccc(S(=O)(=O)Nc2cccc(-c3ncnc4[nH]c(-c5ccc(F)cc5)cc34)c2)cc1` [P-0435, N-[3-[6-(4-fluorophenyl)-7H-pyrrolo[2,3-d]pyrimidin-4-yl]phenyl]-4-methyl-benzenesulfonamide], the figure is 10 to 200 µM; as for `Cc1csc(S(=O)(=O)NC2CCN(c3ncnc4[nH]c(-c5cnn(C)c5)cc34)CC2)c1` [P-0453, 4-methyl-N-[1-[6-(1-methylpyrazol-4-yl)-7H-pyrrolo[2,3-d]pyrimidin-4-yl]-4-piperidyl]thiophene-2-sulfonamide], 0.0001 to 1 µM; as for `Cn1cc(-c2cc3c(N4CCC(NS(=O)(=O)c5ccc6c(c5)OCO6)CC4)ncnc3[nH]2)cn1` [P-0456, N-[1-[6-(1-methylpyrazol-4-yl)-7H-pyrrolo[2,3-d]pyrimidin-4-yl]-4-piperidyl]-1,3-benzodioxole-5-sulfonamide], 0.0001 to 1 µM. As for `Cc1ncc(-c2cc3c(N4CCC(NS(=O)(=O)c5ccc(OC(F)(F)F)cc5)CC4)ncnc3[nH]2)s1` [P-0463, N-[1-[6-(2-methylthiazol-5-yl)-7H-pyrrolo[2,3-d]pyrimidin-4-yl]-4-piperidyl]-4-(trifluoromethoxy)benzenesulfonamide], the figure is 10 to 200 µM. `O=S(=O)(NC1CCN(c2ncnc3[nH]c(-c4ccc(Cl)cc4)cc23)CC1)c1cc2ccccc2s1` [P-0467, N-[1-[6-(4-chlorophenyl)-7H-pyrrolo[2,3-d]pyrimidin-4-yl]-4-piperidyl]benzothiophene-2-sulfonamide]: the 50% inhibitory concentration (IC50) lay in the range of 1 to 10 µM. On to `CC(C)Oc1ccc(S(=O)(=O)NC2CCN(c3ncnc4[nH]c(-c5ccc(Cl)cc5)cc34)CC2)cc1` [P-0468, N-[1-[6-(4-chlorophenyl)-7H-pyrrolo[2,3-d]pyrimidin-4-yl]-4-piperidyl]-4-isopropoxy-benzenesulfonamide], for which the IC50 lay within 0.0001 to 1 µM. As for `CN(C)S(=O)(=O)NC1CCN(c2ncnc3[nH]c(-c4cnn(C)c4)cc23)CC1` [P-0469, 4-[4-(dimethylsulfamoylamino)-1-piperidyl]-6-(1-methylpyrazol-4-yl)-7H-pyrrolo[2,3-d]pyrimidine], the figure is 0.0001 to 1 µM; as for `O=S(=O)(NC1CCN(c2ncnc3[nH]c(C#CC4CC4)cc23)CC1)c1ccc(Cl)cc1` [P-0471, 4-chloro-N-[1-[6-(2-cyclopropylethynyl)-7H-pyrrolo[2,3-d]pyrimidin-4-yl]-4-piperidyl]benzenesulfonamide], 10 to 200 µM; as for `O=S(=O)(NC1CCN(c2ncnc3[nH]c(-c4ccc(Cl)cc4)cc23)CC1)c1cccc(Cl)c1` [P-0480, 3-chloro-N-[1-[6-(4-chlorophenyl)-7H-pyrrolo[2,3-d]pyrimidin-4-yl]-4-piperidyl]benzenesulfonamide], 1 to 10 µM. As for `O=S(=O)(NC1CCN(c2ncnc3[nH]c(-c4ccc(Cl)cc4)cc23)CC1)c1ccc(F)cc1` [P-0481, N-[1-[6-(4-chlorophenyl)-7H-pyrrolo[2,3-d]pyrimidin-4-yl]-4-piperidyl]-4-fluoro-benzenesulfonamide], the figure is 10 to 200 µM; as for `Cn1cc(-c2cc3c(N4CCC(NS(=O)(=O)c5ccc(N6CCCC6=O)cc5)CC4)ncnc3[nH]2)cn1` [P-0483, N-[1-[6-(1-methylpyrazol-4-yl)-7H-pyrrolo[2,3-d]pyrimidin-4-yl]-4-piperidyl]-4-(2-oxopyrrolidin-1-yl)benzenesulfonamide], 0.0001 to 1 µM; as for `CCCn1cc(S(=O)(=O)NC2CCN(c3ncnc4[nH]c(-c5cnn(C)c5)cc34)CC2)cn1` [P-0484, N-[1-[6-(1-methylpyrazol-4-yl)-7H-pyrrolo[2,3-d]pyrimidin-4-yl]-4-piperidyl]-1-propyl-pyrazole-4-sulfonamide], 1 to 10 µM.

A word on the IC50: it is the concentration at which inhibition is half-maximal.
